Measured values published in BigSolDB 2.1.

O=C(NCCO[N+](=O)[O-])c1cccnc1
solubility (mole fraction)
Details	278.15 K	283.15 K	288.15 K	293.15 K	298.15 K	303.15 K	308.15 K	313.15 K	318.15 K	323.15 K
in DMF	0.0135	0.0146	0.0156	0.0168	0.0179	0.0191	0.0202	0.0213	0.0225	0.024
in ethanol	0.00153	0.00167	0.00181	0.00195	0.00208	0.00222	0.00236	0.0025	0.00264	0.00281
in isopropanol	0.0011	0.00119	0.00129	0.00139	0.00149	0.00159	0.00169	0.00178	0.00188	0.002
in methanol	0.0017	0.00182	0.00195	0.00211	0.00226	0.0024	0.00256	0.00271	0.00286	0.00306
in water	0.000204	0.000222	0.00024	0.000257	0.000275	0.000291	0.000307	0.000325	0.000346	0.000367
